Like-named read-outs stand apart in the source and are kept apart here.
Tests used:
[1] = system: diabetic animal models (db/db and ob/ob mice); assay: Administration of PG 1-61 to diabetic animal models; format: in vivo; conditions: 1 pmol; db/db (12 weeks, n=5) and ob/ob mice (14-15 weeks, n=3)
[2] = system: human glucagon receptor (hGCGR); format: cell-based
isolated rat pancreases = assay: Isolated perfused rat pancreas, insulin secretion
rats = conditions: i.v., 1 pmol, 20 min
INS1 cells [3] = assay: cAMP accumulation in cultured rat β cells; format: cell-based
INS1 cells [4] = format: cell-based, rat
[5] = system: human glucagon-like peptide 1 receptor (hGLP-1R); format: cell-based; conditions: COS-7 cells
[6] = system: cultured human hepatocytes (HepG2); assay: cAMP in cultured human hepatocytes; format: cell-based
[7] = system: protein kinase A (PKA), glucose-6-phosphatase (G6P), phosphorylase kinase (PKC-1), glycogen phosphorylase (GP), phosphoenolpyruvate carboxykinase (PECK); format: cell-based, human

Question: Which results are given for “RSLQDTEEKSRSFSASQADPLSDPDQMNEDKRHSQGTFTSDYSKYLDSRRAQDFVQWLMNT [PG 1-61]”?
Answer: inhibition of glucagon secretion in diabetic animals [1]: not seem to inhibit the secretion of glucagon; fold decreased potency compared to native glucagon, hGCGR ([2]; from LogEC50 vs glucagon): 100 fold; agonist class at hGCGR ([2]; transiently transfected COS-7 cells): full agonist; insulin secretion, tAUC (isolated rat pancreases): 3,534 ± 321 min × pM; blood glucose, in words (rats): increased significantly; plasma amino acids (summed molarity) (rats): decreased significantly; plasma insulin (rats; no increase with mannitol): increased transiently; accumulation of cAMP (INS1 cells [3]): dose-dependently increased accumulation of cAMP; insulin release compared to PBS (INS1 cells [4]; 1 nM, p < 0.001): significantly stimulated insulin release; PG 1-61-induced insulin secretion after siRNA knockdown of rGCGR vs mock (INS1 cells [4]; 1 nM, p < 0.01): significantly blunted; insulin release compared to native glucagon (INS1 cells [4]; PG 1-61 1 nM): comparable to that of native glucagon; agonist class / potency in words at hGLP-1R [5]: very low potency; activation of hGLP-1R, in words ([5]; Figure 3B legend): but not the human glucagon-like peptide 1 receptor (hGLP-1R); percent of Emax of GLP-1 reached at 1 μM, hGLP-1R ([5]; at a concentration of 1 μM): 38%; stimulated increase in cAMP after siRNA knockdown of hGCGR vs siRNA control ([6]; HepG2, siRNA GCGR): attenuated; cAMP ([6]; HepG2, 10–1,000 pM): stimulated cAMP production dose-dependently; protein levels of PKA, G6P, PKC-1, GP and PECK ([7]; 30-min incubation, 1,000 pM): significantly increased protein levels; protein levels of PKA, G6P, PKC-1, GP and PECK ([7]; 3 hr incubation, compared with 30 min): more pronounced effects; protein levels of the enzymes in siRNA-treated cells ([7]; siRNA GCGR-treated cells, 30-min incubation): tended to be lower

Source: article PMC5695911 (Cell Reports, 2017)
